We go through one substance from US6414170B1, “Preparation of cationic surfactants containing ester group in molecules” (LG Chemical Ltd., priority 1998, dated 2002).

This data set is described as follows: OECD 301D Closed Bottle Test (evaluation of ultimate biodegradability). The following applies: 60% or more biodegraded two weeks from start of decomposition, test period of 28 days. An excerpt: Measuring of the ultimate biodegradability was made by taking an OECD 301D Closed Bottle Test (a test for determining whether or not 60% or more can be biodegraded two weeks from the time when the sample begins decomposing during the test period of 28 days) on cationic surfactants prepared in EXAMPLES 1 to 8, dimethyl dialkyl ammonium chloride, and imidazoline ester. The ultimate biodegradabilities of cationic surfactants of EXAMPLE 1, 2, 8, and conventional cationic surfactants were less than 60%, thereby not being readily biodegradable.

Turning to dimethyl dialkyl ammonium chloride, the Readily biodegradable result is “No”.
